Measurements from ChEMBL document CHEMBL1140624, “Improved biochemical strategies for targeted delivery of taxoids” (Bioorg Med Chem, 2007).
Values after ≈ are worked out from the molar mass of the structure shown. Active and inactive are the calls of the source. The rule behind the calls is not given here.

What was measured:
MDA-MB-231 = test: Cytotoxicity against ERalpha negative human MDA-MB-231 cells; assay type: functional, cell-based
MCF7 [1] = test: Cytotoxicity against ERalpha positive human MCF7 cells; assay type: functional, cell-based
PC-3 = test: Cytotoxicity against ERbeta positive human PC3 cells; assay type: functional, cell-based
A2780 = test: Cytotoxicity against ERbeta negative human A2780 cells; assay type: functional, cell-based
[2] = Aqueous solubility of the compound; assay type: physicochemical; settings: aqueous solution
[3] = Half life in PBS buffer assessed as taxol circulation time at pH 7; assay type: ADME
MCF7 [4] = test: Cytotoxicity against human MCF7 cells; assay type: functional, cell-based
EVSA-T = test: Cytotoxicity against human EVSA-T cells; assay type: functional, cell-based
[5] = Half life in presence of 30 ug/mL beta-glucuronidase assessed as taxol release at 30 ug/mL; assay type: ADME
LoVo [6] = test: Cytotoxicity against human LoVo cells in presence of beta-glucuronidase; assay type: functional, cell-based
LoVo [7] = test: Ratio of IC50 of drug for human LoVo cells to IC50 of taxotere for human LoVo cells; assay type: functional
[8] = Half life in DTT buffer assessed as taxol release; assay type: ADME
L2987 [9] = test: Cytotoxicity against human L2987 cells; assay type: functional, cell-based
L2987 [10] = test: Cytotoxicity against human L2987 cells in presence of DTT; assay type: functional, cell-based
LoVo [11] = test: Ratio of IC50 of drug for human LoVo cells to IC50 of taxol for human LoVo cells; assay type: functional
[12] = Half life in presence of 10 uM beta-glucuronidase assessed as taxol release at 100 uM; assay type: ADME
OVCAR-3 [13] = test: Cytotoxicity against human OVCAR-3 cells; assay type: functional, cell-based
OVCAR-3 [14] = test: Cytotoxicity against human OVCAR-3 cells in presence of beta-glucuronidase; assay type: functional, cell-based
Mus musculus = organism: Mus musculus; test: Survival of p388 tumor bearing mouse after 30 days; assay type: functional, organism-based
[15] = Cytotoxicity against human IGROV cells; assay type: functional, cell-based
HT-29 = test: Cytotoxicity against human HT29 cells; assay type: functional, cell-based
[16] = test system: M19 melanoma cell line (human); test: Cytotoxicity against human M19 melanoma cells
[17] = Cytotoxicity against human H226 cells; assay type: functional, cell-based; settings: NCI-H226
WiDr = test: Cytotoxicity against human WIDR cells; assay type: functional, cell-based
A498 = test: Cytotoxicity against human A498 cells; assay type: functional, cell-based

## CC(=O)O[C@H]1C(=O)[C@@]2(C)[C@H]([C@H](OC(=O)c3ccccc3)[C@]3(O)C[C@H](OC(=O)[C@H](OC(=O)/C=C/C[C@@H]4C[C@H]5[C@@H]6CCc7cc(O)ccc7[C@H]6CC[C@]5(C)[C@H]4O)[C@@H](NC(=O)c4ccccc4)c4ccccc4)C(C)=C1C3(C)C)[C@]1(OC(C)=O)CO[C@@H]1C[C@@H]2O
MDA-MB-231
  IC50: 22 nM
MCF7 [1]
  IC50: 39 nM
PC-3
  IC50: 73 nM
A2780
  IC50: 180 nM

## CC(=O)O[C@H]1C(=O)[C@@]2(C)[C@H]([C@H](OC(=O)c3ccccc3)[C@]3(O)C[C@H](OC(=O)[C@H](OC(=O)C[C@H](O)C(=O)O)[C@@H](NC(=O)c4ccccc4)c4ccccc4)C(C)=C1C3(C)C)[C@]1(OC(C)=O)CO[C@@H]1C[C@@H]2O
[2]
  solubility: 200 µg/mL (≈ 206 µM)
[3]
  t1/2: > 1440 min
MCF7 [4]
  IC50: < 0.003 µg/mL
EVSA-T
  IC50: < 0.003 µg/mL

## CC(=O)O[C@H]1C(=O)[C@@]2(C)[C@H]([C@H](OC(=O)c3ccccc3)[C@]3(O)C[C@H](OC(=O)[C@H](OC(=O)N(C)CCN(C)C(=O)OCc4ccc(O[C@@H]5O[C@H](C(=O)O)[C@@H](O)[C@H](O)[C@H]5O)c([N+](=O)[O-])c4)[C@@H](NC(=O)OC(C)(C)C)c4ccccc4)C(C)=C1C3(C)C)[C@]1(OC(C)=O)CO[C@@H]1C[C@@H]2O
[5]
  t1/2: 10 min
LoVo [6]
  Activity: inactive
LoVo [7]
  Ratio IC50: 337

## CC(=O)O[C@H]1C(=O)[C@@]2(C)[C@H]([C@H](OC(=O)c3ccccc3)[C@]3(O)C[C@H](OC(=O)[C@H](OC(=O)CCC(=O)O[C@@H]4C[C@]5(C)[C@@H](O)CC[C@H]5[C@@H]5CCc6cc(O)ccc6[C@H]54)[C@@H](NC(=O)c4ccccc4)c4ccccc4)C(C)=C1C3(C)C)[C@]1(OC(C)=O)CO[C@@H]1C[C@@H]2O
MDA-MB-231
  IC50: 51 nM
MCF7 [1]
  IC50: 62 nM
PC-3
  IC50: 40 nM
A2780
  IC50: 680 nM

## CC(=O)O[C@H]1C(=O)[C@@]2(C)[C@H]([C@H](OC(=O)c3ccccc3)[C@]3(O)C[C@H](OC(=O)[C@H](OC(=O)C(C)(C)CCSS[C@@H]4C[C@H](CO)[C@@H](O)[C@H](O)[C@H]4O)[C@@H](NC(=O)c4ccccc4)c4ccccc4)C(C)=C1C3(C)C)[C@]1(OC(C)=O)CO[C@@H]1C[C@@H]2O
[8]
  t1/2: 12 min
L2987 [9]
  IC50: 5700 nM
L2987 [10]
  IC50: 200 nM

## CC(=O)O[C@H]1C(=O)[C@@]2(C)[C@H]([C@H](OC(=O)c3ccccc3)[C@]3(O)C[C@H](OC(=O)[C@H](OC(=O)C(C)(C)CCSSc4ccccn4)[C@@H](NC(=O)c4ccccc4)c4ccccc4)C(C)=C1C3(C)C)[C@]1(OC(C)=O)CO[C@@H]1C[C@@H]2O
[8]
  t1/2: 4 min

## CC(=O)O[C@H]1C(=O)[C@@]2(C)[C@H]([C@H](OC(=O)c3ccccc3)[C@]3(O)C[C@H](OC(=O)[C@H](OC(=O)N(C)CCN(C)C(=O)OCc4ccc(O[C@@H]5O[C@H](C(=O)O)[C@@H](O)[C@H](O)[C@H]5O)c(N)c4)[C@@H](NC(=O)OC(C)(C)C)c4ccccc4)C(C)=C1C3(C)C)[C@]1(OC(C)=O)CO[C@@H]1C[C@@H]2O
[5]
  t1/2: 10 min
LoVo [11]
  Ratio IC50: 187
LoVo [6]
  Activity: inactive

## CC(=O)O[C@H]1C(=O)[C@@]2(C)[C@H]([C@H](OC(=O)c3ccccc3)[C@]3(O)C[C@H](OC(=O)[C@H](OC(=O)CC(C)(C)CNC(=O)O[C@@H]4O[C@H](C(=O)[O-])[C@@H](O)[C@H](O)[C@H]4O)[C@@H](NC(=O)c4ccccc4)c4ccccc4)C(C)=C1C3(C)C)[C@]1(OC(C)=O)CO[C@@H]1C[C@@H]2O.[Na+]
[12]
  t1/2: 120 min
OVCAR-3 [13]
  IC50: 20 nM
OVCAR-3 [14]
  IC50: 0.6 nM

## CC(=O)O[C@H]1C(=O)[C@@]2(C)[C@H]([C@H](OC(=O)c3ccccc3)[C@]3(O)C[C@H](OC(=O)[C@@H](OC(=O)/C=C/C[C@@H]4C[C@H]5[C@@H]6CCc7cc(O)ccc7[C@H]6CC[C@]5(C)[C@H]4O)[C@@H](NC(=O)c4ccccc4)c4ccccc4)C(C)=C1C3(C)C)[C@]1(OC(C)=O)CO[C@@H]1C[C@@H]2O
MDA-MB-231
  IC50: 2200 nM
MCF7 [1]
  IC50: 1600 nM
PC-3
  IC50: 120 nM
A2780
  IC50: 8300 nM

## CC(=O)O[C@H]1C(=O)[C@@]2(C)[C@H]([C@H](OC(=O)c3ccccc3)[C@]3(O)C[C@H](OC(=O)[C@H](OC(=O)C[C@H](O)C(=O)[O-])[C@@H](NC(=O)c4ccccc4)c4ccccc4)C(C)=C1C3(C)C)[C@]1(OC(C)=O)CO[C@@H]1C[C@@H]2O.[Na+]
[2]
  solubility: 600 µg/mL
MCF7 [4]
  IC50: < 0.003 µg/mL
EVSA-T
  IC50: < 0.003 µg/mL

## CC(=O)O[C@H]1C(=O)[C@@]2(C)[C@H]([C@H](OC(=O)c3ccccc3)[C@]3(O)C[C@H](OC(=O)[C@H](OC(=O)C(C)(C)CCSSCC(NC(=O)CCC(N)C(=O)O)C(=O)NCC(=O)O)[C@@H](NC(=O)c4ccccc4)c4ccccc4)C(C)=C1C3(C)C)[C@]1(OC(C)=O)CO[C@@H]1C[C@@H]2O (stereo not given in full)
[8]
  t1/2: 60 min

## CC(=O)O[C@H]1C(=O)[C@@]2(C)[C@H]([C@H](OC(=O)c3ccccc3)[C@]3(O)C[C@H](OC(=O)[C@H](OC(=O)N(C)c4cc([N+](=O)[O-])ccc4O[C@@H]4O[C@H](C(=O)O)[C@@H](O)[C@H](O)[C@H]4O)[C@@H](NC(=O)c4ccccc4)c4ccccc4)C(C)=C1C3(C)C)[C@]1(OC(C)=O)CO[C@@H]1C[C@@H]2O
LoVo [11]
  Ratio IC50: 722
LoVo [6]
  IC50: 100 nM

## CC(=O)O[C@H]1C(=O)[C@@]2(C)[C@H]([C@H](OC(=O)c3ccccc3)[C@]3(O)C[C@H](OC(=O)C(OC(=O)N(C)CCN(C)C(=O)OCc4ccc(O[C@@H]5O[C@H](C(=O)O)[C@@H](O)[C@H](O)[C@H]5O)c(N)c4)[C@@H](NC(=O)c4ccccc4)c4ccccc4)C(C)=C1C3(C)C)[C@]1(OC(C)=O)CO[C@@H]1C[C@@H]2O (stereo not given in full)
[5]
  t1/2: 10 min
LoVo [11]
  Ratio IC50: 153
LoVo [6]
  Activity: inactive

## CC(=O)O[C@H]1C(=O)[C@]2(C)[C@@H](OC(=O)C[C@H](O)C(=O)O)C[C@H]3OC[C@@]3(OC(C)=O)[C@H]2[C@H](OC(=O)c2ccccc2)[C@]2(O)C[C@H](OC(=O)[C@H](OC(=O)C[C@H](O)C(=O)O)[C@@H](NC(=O)c3ccccc3)c3ccccc3)C(C)=C1C2(C)C
[2]
  solubility: 500 µg/mL (≈ 460 µM)
MCF7 [4]
  IC50: 0.069 µg/mL (≈ 0.0635 µM)
EVSA-T
  IC50: 0.059 µg/mL (≈ 0.0543 µM)

## Cn1c(=O)oc2ccc([N+](=O)[O-])cc21
LoVo [11]
  Ratio IC50: 3000
LoVo [6]
  Activity: inactive

## CC(=O)O[C@H]1C(=O)[C@@]2(C)[C@H]([C@H](OC(=O)c3ccccc3)[C@]3(O)C[C@H](OC(=O)[C@H](O)[C@@H](NC(=O)c4ccccc4)c4ccccc4)C(C)=C1C3(C)C)[C@]1(OC(C)=O)CO[C@@H]1C[C@@H]2O [PACLITAXEL]
Mus musculus
  Activity: Toxic
MDA-MB-231
  IC50: 4.5 nM
MCF7 [1]; read-out: ED50 (the source's name)
  EC50: 0.05 µg/mL (≈ 0.0586 µM)
[2]
  solubility: 10 µg/mL (≈ 11.7 µM)
PC-3
  IC50: 77 nM
A2780
  IC50: 25 nM
OVCAR-3 [13]
  IC50: 0.2 nM
[15]
  IC50: 0.01 µg/mL (≈ 0.0117 µM)
OVCAR-3 [14]
  Activity: inactive
LoVo [6]
  IC50: 90 nM
HT-29
  IC50: 0.03 µg/mL (≈ 0.0351 µM)
[16]
  IC50: < 0.003 µg/mL

## CC(=O)O[C@H]1C(=O)[C@@]2(C)[C@H]([C@H](OC(=O)c3ccccc3)[C@]3(O)C[C@H](OC(=O)[C@H](OC(=O)Cc4ccc(NC(=O)O[C@@H]5O[C@H](C(=O)O)[C@@H](O)[C@H](O)[C@H]5O)cc4)[C@@H](NC(=O)c4ccccc4)c4ccccc4)C(C)=C1C3(C)C)[C@]1(OC(C)=O)CO[C@@H]1C[C@@H]2O
OVCAR-3 [13]
  IC50: 0.23 nM
OVCAR-3 [14]
  IC50: 0.23 nM

## CC(=O)O[C@H]1C(=O)[C@@]2(C)[C@H]([C@H](OC(=O)c3ccccc3)[C@]3(O)C[C@H](OC(=O)[C@H](OC(=O)CCc4ccc(NC(=O)O[C@@H]5O[C@H](C(=O)[O-])[C@@H](O)[C@H](O)[C@H]5O)cc4)[C@@H](NC(=O)c4ccccc4)c4ccccc4)C(C)=C1C3(C)C)[C@]1(OC(C)=O)CO[C@@H]1C[C@@H]2O.[Na+]
[12]
  t1/2: 45 min
OVCAR-3 [13]
  IC50: 27 nM
OVCAR-3 [14]
  IC50: 1.1 nM

## CC(=O)O[C@H]1C(=O)[C@@]2(C)[C@H]([C@H](OC(=O)c3ccccc3)[C@]3(O)C[C@H](OC(=O)[C@H](OC(=O)N(C)CCN(C)C(=O)[C@H](CCCCN)NC(=O)[C@H](CC(C)C)NC(=O)[C@H](N)C(C)C)[C@@H](NC(=O)c4ccccc4)c4ccccc4)C(C)=C1C3(C)C)[C@]1(OC(C)=O)CO[C@@H]1C[C@@H]2O.Cl
MDA-MB-231
  IC50: 4.5 nM
MCF7 [1]
  IC50: 4.9 nM
PC-3
  IC50: 77 nM
MCF7 [4]
  IC50: 0.0069 µg/mL
EVSA-T
  IC50: 0.0052 µg/mL
[17]
  IC50: 0.025 µg/mL
[15]
  IC50: 0.026 µg/mL
WiDr
  IC50: 0.011 µg/mL
A498
  IC50: 0.045 µg/mL
[16]
  IC50: 0.024 µg/mL
